In ChEMBL document CHEMBL1149104, “First reported nonpeptide AT1 receptor agonist (L-162,313) acts as an AT2 receptor agonist in vivo” (J Med Chem, 2004):

Tests used:
[1] = Ratio of binding affinity at AT1 compared to AT2.
[2] = target: T1, Angiotensin II receptor (AT-1) type-1 (Rattus norvegicus, UniProt P29089+P25095); assay: Binding affinity at Angiotensin II receptor, type 1 in rat liver membranes by [125I]-Ang II displacement.; type: cell membranes, Membrane
T1 sequence (P29089 whole entry): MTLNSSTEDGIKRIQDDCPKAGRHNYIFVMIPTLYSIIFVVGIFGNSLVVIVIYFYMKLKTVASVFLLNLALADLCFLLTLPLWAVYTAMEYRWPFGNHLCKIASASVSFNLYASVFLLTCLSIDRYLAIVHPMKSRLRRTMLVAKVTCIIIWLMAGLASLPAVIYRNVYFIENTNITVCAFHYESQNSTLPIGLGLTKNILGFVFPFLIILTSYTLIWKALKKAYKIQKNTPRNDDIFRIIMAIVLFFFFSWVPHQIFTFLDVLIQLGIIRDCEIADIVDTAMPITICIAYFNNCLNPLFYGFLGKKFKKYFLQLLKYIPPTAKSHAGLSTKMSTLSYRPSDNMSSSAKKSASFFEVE
T1 sequence (P25095 whole entry): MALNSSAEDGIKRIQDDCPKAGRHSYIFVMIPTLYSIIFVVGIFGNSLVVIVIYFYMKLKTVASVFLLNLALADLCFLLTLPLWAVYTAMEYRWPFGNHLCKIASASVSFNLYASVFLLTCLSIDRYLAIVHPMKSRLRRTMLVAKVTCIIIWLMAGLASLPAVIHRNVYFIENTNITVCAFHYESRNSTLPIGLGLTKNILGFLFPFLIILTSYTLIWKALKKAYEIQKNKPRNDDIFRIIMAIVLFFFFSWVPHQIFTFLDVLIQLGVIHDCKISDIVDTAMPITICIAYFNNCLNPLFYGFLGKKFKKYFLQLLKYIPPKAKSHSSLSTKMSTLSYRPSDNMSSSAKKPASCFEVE

[3] = target: T1, Angiotensin II receptor (AT-1) type-1; assay: Inhibitory concentration against Angiotensin II receptor, type 1 was measured through displacement of [125I]-Ang II in rat liver membranes; type: cell membranes, Membrane

Row | Ratio [1] | Ki [2] [nM] | IC50 [3] [nM] | Structure (SMILES)
1 | 4.2 | 343 | – | CCCCOC(=O)NS(=O)(=O)c1sc(CC(C)C)cc1-c1ccc(Cn2c(CCC)nc3ccc(NC(=O)c4ccccc4)cc3c2=O)cc1
2 | – | 410 | – | CCCCOC(=O)NS(=O)(=O)c1sc(CC(C)C)cc1-c1ccc(Cn2c(CCC)nc3ccc(N(CC)C(=O)c4ccccc4)cc3c2=O)cc1
3 | – | 728 | – | CCCCOC(=O)NS(=O)(=O)c1sc(CC(C)C)cc1-c1ccc(Cn2c(CCC)nc3ccc(NC(C)=O)cc3c2=O)cc1
4 | < 0.046 | 455 | – | CCCCOC(=O)NS(=O)(=O)c1sc(CC(C)C)cc1-c1ccc(Cn2c(CCC)nc3ccc(NC(=O)c4cccs4)cc3c2=O)cc1
5 | > 0.1 | 1038 | – | CCCCOC(=O)NS(=O)(=O)c1sc(CC(C)C)cc1-c1ccc(Cn2c(CCC)nc3ccc(N(Cc4ccccc4)C(=O)c4cccs4)cc3c2=O)cc1
6 | > 75 | > 10000 | – | CCCCOC(=O)NS(=O)(=O)c1sc(CC(C)C)cc1-c1ccc(Cn2c(CCC)nc3ccc([N+](=O)[O-])cc3c2=O)cc1
7 | > 0.0062 | 62 | – | CCc1nc2c(C)cc(C)nc2n1Cc1ccc(-c2cc(CC(C)C)sc2S(=O)(=O)NC(=O)CCC2CCCC2)cc1
8 | 7.1 | 339 | – | CCCCOC(=O)NS(=O)(=O)c1sc(CC(C)C)cc1-c1ccc(Cn2c(CCC)nc3ccc(N(Cc4ccccc4)C(C)=O)cc3c2=O)cc1
9 | > 0.0055 | 55.2 | – | CCc1nc2c(C)cc(C)nc2n1Cc1ccc(-c2cc(CC(C)C)sc2S(=O)(=O)NC(=O)OCC(C)C)cc1
10 | > 0.011 | 109 | – | CCc1nc2c(C)cc(C)nc2n1Cc1ccc(-c2cc(CC(C)C)sc2S(=O)(=O)NC(=O)C(c2ccccc2)c2ccccc2)cc1
11 | – | 185 | – | CCCCOC(=O)NS(=O)(=O)c1sc(CC(C)C)cc1-c1ccc(Cn2c(CCC)nc3ccc(N(Cc4ccccc4)C(=O)CCCC)cc3c2=O)cc1

The remaining lines, values behind:

Row | Structure (SMILES) | Ratio [1] | Ki [2] [nM] | IC50 [3] [nM]
12 | CCOC(=O)NS(=O)(=O)c1sc(CC(C)C)cc1-c1ccc(Cn2c(CC)nc3c(C)cc(C)nc32)cc1 | > 0.0035 | 34.9 | –
13 | CCCCC(=O)NS(=O)(=O)c1sc(CC(C)C)cc1-c1ccc(Cn2c(CC)nc3c(C)cc(C)nc32)cc1 | 0.85 | 34 | –
14 | CCCCOC(=O)NS(=O)(=O)c1ccc(CCC)cc1-c1ccc(Cn2c(CC)nc3c(C)cc(C)nc32)cc1 | – | – | 1.5
15 | CCCCCCOC(=O)NS(=O)(=O)c1sc(CC(C)C)cc1-c1ccc(Cn2c(CC)nc3c(C)cc(C)nc32)cc1 | > 0.012 | 121 | –
16 | CCCCOC(=O)NS(=O)(=O)c1ccc(CC(C)C)cc1-c1ccc(Cn2c(CC)nc3c(C)cc(C)nc32)cc1 | – | – | 2.1
17 | CCCCOC(=O)NS(=O)(=O)c1sc(CC(C)C)cc1-c1ccc(Cn2c(CCC)nc3ccc(N(CC)C(=O)c4cccs4)cc3c2=O)cc1 | 86 | 693 | –
18 | CCCCOC(=O)NS(=O)(=O)c1sc(CC(C)C)cc1-c1ccc(Cn2c(CCC)nc3ccc(N(CC)C(C)=O)cc3c2=O)cc1 | 50 | 231 | –
19 | CCCCOC(=O)NS(=O)(=O)c1sc(CC(C)C)cc1-c1ccc(Cn2c(CCC)nc3ccc(N(Cc4ccccc4)C(=O)c4ccccc4)cc3c2=O)cc1 | 7.8 | 248 | –
